According to ChEMBL document CHEMBL1157539, “Thousands of chemical starting points for antimalarial lead identification” (Nature, 2010):

system: Plasmodium falciparum; assay: GSK_TCMDC: Inhibition of Plasmodium falciparum 3D7 in whole erythrocytes, using parasite LDH activity as an index of growth.; type: functional, organism-based; conditions: Plasmodium falciparum, 3D7

SMILES | XC50
N#Cc1ccc(-c2ccc(C(=O)Nc3ccc4c(c3)CCN(C3CCC3)CC4)nc2)cn1 | 1160 nM
O=C1Nc2cccc3c2C1(CCCCN1CC=C(c2c[nH]c4ncccc24)CC1)CCC3 (configuration not stated) | 395 nM
Cc1cc(NC(=O)c2cccs2)ccc1OC1CCN(Cc2ccc(C#N)cc2)C1 (configuration not stated) | 847 nM
Fc1ccc2c(NN=Cc3ccc(Cl)cc3)ccnc2c1 | 754 nM
COc1ccc(CC(C)NCC(O)c2cccc(C(F)(F)F)c2)cc1 (configuration not stated) | 1580 nM
Cc1cc2c(cc1C(F)(F)F)N(C(=O)Nc1ccc(C(=O)NCCN3CCCC3)cc1)CC2 | 321 nM
Cc1sc2nc(CSc3ccccc3)nc(N3CCN(CC(=O)N4CCCC4)CC3)c2c1C | 1260 nM
Cc1cc(Nc2cc(Cl)cc(Cl)c2)nc(N)n1 | 1140 nM
COc1ccc(CN(C)C(=O)CCNS(=O)(=O)c2ccc3c(c2)OCCCO3)cc1F | 656 nM
COc1cc(NC(=O)/C=C/c2ccccc2OC(F)(F)F)cc(OCCN2CCC(O)(c3ccccc3)CC2)c1 | 285 nM
O=c1cc(NCCCNCc2ccc3c(c2)OC(F)(F)O3)[nH]c2ccccc12 | 770 nM
CN(c1ccc(NC(=O)Nc2cc(C(F)(F)F)ccc2F)cc1)c1ccnc(NCCN2CCOCC2)n1 | 512 nM
